Patent US20220387467A1, “USE OF SGLT2 INHIBITORS TO TREAT PRIMARY BILLIARY CHOLANGITIS” (AVOLYNT, priority 2019, published 2022)
Entries after “also recorded” stand apart in the source; their conditions may differ.

Assays:
TIA mice = assay: TIA mouse model of liver and biliary disease resembling PBC/PSC, H&E liver histology and survival; type: in vivo; conditions: for inflammation at the interface between the hepatic parenchyma and the portal tracts (interface hepatitis) / proliferation of bile ductules (bile ductular proliferation) / periportal and biliary inflammation: TIA mice at 11 weeks, H&E liver sections, vs untreated TIA mice; for inflammation at the interface between the hepatic parenchyma and the portal tracts (interface hepatitis): 0.03% in chow for 7 weeks; for proliferation of bile ductules (bile ductular proliferation) / periportal and biliary inflammation: 0.03% in chow from 4 weeks of age
Text: The following Examples describe the utilization of a murine model of liver damage to assess the effectiveness of a treatment regimen based on the oral administration of remogliflozin etabonate. The murine model is based on mice that are deficient for the expression of tumor necrosis factor alpha (“TNFα”), interleukin 10 (“IL-10”), and activation-induced cytidine deaminase (“AICDA”). As the mice are deficient in TNF, IL-10, and AICDA, they are referred to, herein, as “TIA” mice. These liver outcomes in these animals also closely resemble that of PBC.
Moreover, as AICDA is required for immunoglobulin (“Ig”) class switching, TIA mice lack IgG and IgA, a phenotype analogous to humans with hyper-IgM syndrome. Therefore, with the combination of AICDA deficiency with the risk factors associated with TNFα and IL-10 deficiencies, TIA mice also develop liver and biliary inflammation reminiscent of PSC and PBC symptoms in humans. Accordingly, the TIA model is useful for investigating mechanisms that act early in PBC pathogenesis, as well as treatments that can prevent progression to PBC and PSC.
Example 1. Orally-administered remogliflozin etabonate reduces inflammatory cell infiltration, bile ductular proliferation, and interface hepatitis in TIA mice. TIA mice were created by first breeding TNFα knock out (“KO”) C57BL/6 mice, (strain B6.129S-Tnf^tm1Gkl/J, stock #005540, Jackson Laboratories, Bar Harbor, Me.) with IL-10 KO mice (strain B10.129P2(B6)-IL10^tm1Cgn/J, Stock No. 002251, Jackson Laboratories) to produce a population of mice that were deficient in TNFα and IL-10. Because mice with a TNFα −/− and IL10 −/− genotype spontaneously develop inflammatory bowel disease (“IBD”) (Hale 2012), a condition associated with poor breeding success (Nagy 2016), the mice needed for further breeding to generate an AICDA population, were generated by breeding offspring with a TNFα and IL10+/− genotype with AICDA −/− mice, which were obtained from Dr. Tasuku Honjo (Muramatsu 2000)), to produce a population of TNFα −/−, IL10 −/−, and AICDA+/−(“TI-hetA”) males and females. In turn, TI-hetA pairs were bred to generate populations that were 25% TIA mice, and 50% non-colitis-susceptible TI-hetA littermates that could be used as control populations. All populations were exposed to the same environment from birth. The mice were housed in polycarbonate micro-isolator cages, in individually ventilated racks, under barrier conditions that excluded all known pathogens, including Helicobacter pylori and Norovirus. Mice had ad libitum access to water, and to a standard diet (PicoLab Mouse Diet 20/5058, LabDiet, St. Louis, Mo., USA).
At four (4) weeks of age, TIA (40) and TI-hetA (22) mice were randomized into experimental groups that received either a standard diet (20 TIA and 12 het), or a standard diet formulated 0.03% remogliflozin etabonate (20 TIA and 10 het) (Avolynt Inc., USA). The mice were maintained on this diet for seven (7) weeks. Body weights were obtained three (3) times, weekly, to assess the general health of mice, and to track the development of inflammatory bowel disease (IBD). Glycosuria in the experimental groups was assessed by applying freshly voided urine directly to the glucose test patch on an Accutest® URS-10 urinary reagent test strips (Jant Pharmaceutical Corp., Encino, Calif., USA). Mice were humanely euthanized before reaching the experimental endpoint, of eleven (11) weeks of age, if they lost >15% body weight, or developed rectal prolapse.
To characterize biliary lesions in TIA mice at the end of the 7 week treatment period, liver tissue was obtained from the remogliflozin-treated, and untreated groups, for histologic examination. The excised liver tissue was fixed in Carnoy's fixative solution, and processed into paraffin blocks. The paraffin blocks were sectioned, and stained with Hematoxylin and eosin (H&E) for pathologic analysis. The H&E-stained sections were scored by an American Board of Pathology-certified pathologist. […]

[1] = Plasma remogliflozin after oral immediate release (IR) tablet; type: in vivo
Text: Oral dosage forms according to the invention are typically tablets or capsules. Tablets can be obtained by direct compression of the mixed components of a dosage form, including a therapeutically effective amount of an SGLT2 inhibitor, and selected excipients, like cellulose derivatives, metacrylates, chitosan, carboxymethylstarch, or mixtures thereof. For example, a compressed tablet according to the invention, can be prepared by granulating a SGLT2 inhibitor with microcrystalline cellulose and croscarmellose sodium with a water and povidone solution. The resulting granules are dried, milled, and then blended with mannitol, microcrystalline cellulose, and croscarmellose. The blend is lubricated with magnesium stearate and compressed. […] Indeed, Tmax for an IR remogliflozin etabonate oral dosage form according to the invention occurs at 1 hour, or less, following ingestion of the dosage form by a subject.

With `CCOC(=O)OC[C@H]1O[C@@H](Oc2nn(C(C)C)c(C)c2Cc2ccc(OC(C)C)cc2)[C@H](O)[C@@H](O)[C@@H]1O` [remogliflozin etabonate] the “number of TIA mice that required early euthanasia” value (TIA mice; Remo group versus control group, 7 week study) was “no statistical difference”, the early death (TIA mice; Remo group versus control group, not statistically significant) was “trend toward decreased early death” and the “inflammation at the interface between the hepatic parenchyma and the portal tracts (interface hepatitis)” value (TIA mice) was “reduces”. The “inflammation at the interface between the hepatic parenchyma and the portal tracts (interface hepatitis)” value (TIA mice; listed as remogliflozin) was “less inflammation”, the “proliferation of bile ductules (bile ductular proliferation)” value (“proliferation of bile ductules” for short) (TIA mice) was “reduces” and the “periportal and biliary inflammation” value (TIA mice; listed as Remo) was “decrease in periportal and biliary inflammation”. The “proliferation of bile ductules” value (TIA mice; listed as Remo) was “decrease in proliferation of bile ductules”, the “periportal and biliary inflammation” value (TIA mice; listed as remogliflozin) was “less inflammation” and the “proliferation of bile ductules” value (TIA mice; listed as remogliflozin) was “less proliferation of bile ductiles”. For the same molecule, the “development and progression of liver and biliary disease” value (TIA mice; TIA mice, 0.03% remogliflozin etabonate in diet for 7 weeks from 4 weeks of age, vs standard diet) was “prevents the progression of PBC disease pathology; also recorded: markedly less development and progression of liver and biliary disease”, the inflammatory cell infiltration (TIA mice; TIA mice, oral, 0.03% in diet for 7 weeks) was “reduces” and the Tmax ([1]; IR remogliflozin etabonate oral dosage form, following ingestion) was no more than 1 h. For the same molecule, the “remogliflozin plasma concentration after clearance” value ([1]; compressed IR tablet, 350 mg remogliflozin etabonate, oral, after 3 hrs) was 40 ng/mL and the “maximum remogliflozin plasma concentration (Cmax)” value ([1]; compressed IR tablet, 350 mg remogliflozin etabonate, oral, at 1 hr post-ingestion) was 160 ng/mL.
